Laboratory results: DBAASP
In brackets after ≈: the same amount, converted by molar mass. One block for each compound: values may come before it.

What was measured:
Assay in all cases: ≥ marks a high value that may be exact or a test limit, other limits are often not marked, values filed in µg/mL are converted to µM
[1] = tested on: Candida albicans ATCC 2002
[2] = tested on: Escherichia coli ATCC 25922
[3] = tested on: Pseudomonas aeruginosa CMCCB 10104
[4] = tested on: Staphylococcus aureus ATCC 25923
[5] = tested on: Candida albicans NCPF 1467
[6] = tested on: Escherichia coli NCTC 10418
[7] = tested on: Staphylococcus aureus NCTC 10788
[8] = tested on: Cronobacter muytjensii ATCC 51329
[9] = tested on: Cronobacter sakazakii ATCC BAA-894
[10] = tested on: Cronobacter sakazakii DPC 6440
[11] = tested on: Cronobacter sakazakii DSM 4485
[12] = tested on: Escherichia coli NCIMB 11843
[13] = tested on: Klebsiella pneumoniae NCIMB 13218
[14] = tested on: Pseudomonas fluorescens NCIMB 9046
[15] = tested on: Salmonella enterica subsp. enterica serovar Typhimurium LT2
[16] = tested on: Staphylococcus aureus NCTC 8325-4
[17] = tested on: Staphylococcus aureus Newman
[18] = tested on: Staphylococcus aureus RF122
[19] = tested on: Staphylococcus aureus RN4220
[20] = tested on: Staphylococcus aureus SA113
Bacillus subtilis = tested on: Bacillus subtilis
[21] = tested on: Escherichia coli DH5alpha
[22] = tested on: Pseudomonas aeruginosa ATCC 27853

MIC [1]: ≥ 101 µM | MIC [2]: > 101 µM | MIC [3]: ≥ 101 µM | MIC [4]: > 101 µM
SMILES: CC[C@H](C)[C@H](NC(=O)[C@H](CC(N)=O)NC(=O)[C@H](Cc1ccccc1)NC(=O)[C@H](CCSC)NC(=O)[C@H](CC(N)=O)NC(=O)[C@@H](N)CCC(=O)O)C(=O)N[C@@H](CCCCN)C(=O)N[C@@H](CO)C(=O)N[C@@H](CO)C(=O)N[C@H](C(=O)N[C@@H](CCC(=O)O)C(=O)N[C@@H](CO)C(=O)N[C@@H](CC(=O)O)C(=O)N[C@@H](CO)C(=O)N[C@@H](Cc1ccccc1)C(=O)N[C@@H](Cc1c[nH]c2ccccc12)C(=O)NCC(=O)O)C(C)C [ENMFNIKSSVESDSFWG]

MIC [5]: 2.5 µM (≈ 4.97 µg/mL) | MIC [6]: 5 µM (≈ 9.94 µg/mL) | MIC [7]: 5 µM (≈ 9.94 µg/mL)
SMILES: CC[C@H](C)[C@H](NC(=O)[C@H](CC(C)C)NC(=O)[C@H](CCCCN)NC(=O)[C@H](CCCCN)NC(=O)[C@@H](NC(=O)[C@H](CC(C)C)NC(=O)[C@H](CCCCN)NC(=O)[C@@H]1CCCN1C(=O)[C@@H](NC(=O)[C@H](CCSC)NC(=O)CNC(=O)[C@H](CC(C)C)NC(=O)[C@@H](N)Cc1ccccc1)[C@@H](C)CC)[C@@H](C)CC)C(=O)N[C@@H](CCCCN)C(=O)N[C@@H](C)C(=O)N[C@@H](Cc1ccccc1)C(=O)N[C@@H](CCCCN)C(=O)O [FLGMIPKLIKKLIKAFK]

MIC [5]: ≥ 132 µM | MIC [6]: ≥ 264 µM | MIC [7]: ≥ 33 µM
SMILES: CC[C@H](C)[C@H](NC(=O)[C@H](C)NC(=O)[C@H](C)NC(=O)[C@@H]1CCCN1C(=O)[C@@H](NC(=O)[C@H](CC(C)C)NC(=O)[C@H](CO)NC(=O)[C@H](CC(C)C)NC(=O)[C@@H](N)Cc1ccccc1)[C@@H](C)CC)C(=O)N[C@@H](CO)C(=O)N[C@@H](C)C(=O)N[C@H](C(=O)N[C@@H](CO)C(=O)N[C@@H](C)C(=O)N[C@@H](CC(C)C)C(=O)N[C@@H](C)C(=O)N[C@@H](CC(N)=O)C(=O)N[C@@H](Cc1cnc[nH]1)C(N)=O)C(C)C [FLSLIPAAISAVSALANH]

MIC [5]: ≥ 200 µM | MIC [6]: ≥ 200 µM | MIC [7]: ≥ 200 µM
SMILES: CC[C@H](C)[C@H](NC(=O)[C@H](Cc1cnc[nH]1)NC(=O)[C@@H]1CCCN1C(=O)[C@@H](NC(=O)[C@H](CC(C)C)NC(=O)[C@H](CO)NC(=O)[C@H](CC(C)C)NC(=O)[C@@H](N)Cc1ccccc1)[C@@H](C)CC)C(=O)N[C@H](C(=O)N[C@@H](CO)C(=O)NCC(=O)N[C@H](C(=O)N[C@@H](C)C(=O)N[C@@H](C)C(=O)N[C@@H](CC(C)C)C(=O)N[C@@H](C)C(=O)N[C@@H](CC(N)=O)C(=O)N[C@@H](Cc1cnc[nH]1)C(=O)N[C@@H](CC(C)C)C(N)=O)C(C)C)C(C)C [FLSLIPHIVSGVAALANHL]

MIC [5]: ≥ 202 µM | MIC [6]: ≥ 202 µM | MIC [7]: ≥ 202 µM
SMILES: CC[C@H](C)[C@H](NC(=O)[C@H](CO)NC(=O)[C@H](CC(N)=O)NC(=O)[C@@H](NC(=O)[C@H](Cc1ccccc1)NC(=O)[C@H](C)NC(=O)[C@H](CO)NC(=O)[C@H](C)NC(=O)[C@H](Cc1ccccc1)NC(=O)[C@H](CC(=O)O)NC(=O)[C@H](CCCCN)NC(=O)[C@H](C)NC(=O)CNC(=O)[C@@H](NC(=O)[C@H](CCCCN)NC(=O)[C@H](CC(C)C)NC(=O)[C@H](CCCCN)NC(=O)[C@H](CCC(=O)O)NC(=O)[C@H](CC(C)C)NC(=O)[C@H](Cc1ccccc1)NC(=O)CN)[C@@H](C)O)C(C)C)C(=O)N[C@@H](CCCCN)C(=O)NCC(=O)N[C@H](C(=O)O)[C@@H](C)O [GFLEKLKTGAKDFASAFVNSIKGT]

MIC [5]: 6 µM (≈ 15.2 µg/mL) | MIC [6]: 12 µM (≈ 30.4 µg/mL) | MIC [7]: 3 µM (≈ 7.6 µg/mL)
SMILES: CC[C@H](C)[C@H](NC(=O)CN)C(=O)NCC(=O)NCC(=O)N[C@@H](C)C(=O)N[C@@H](CC(C)C)C(=O)N[C@@H](CC(C)C)C(=O)N[C@@H](CO)C(=O)N[C@@H](C)C(=O)NCC(=O)N[C@@H](CCCCN)C(=O)N[C@@H](C)C(=O)N[C@@H](C)C(=O)N[C@@H](CC(C)C)C(=O)N[C@@H](CCCCN)C(=O)NCC(=O)N[C@@H](CC(C)C)C(=O)N[C@@H](C)C(=O)N[C@@H](CCCCN)C(=O)NCC(=O)N[C@@H](CC(C)C)C(=O)N[C@@H](C)C(=O)N[C@@H](CCC(=O)O)C(=O)N[C@@H](Cc1cnc[nH]1)C(=O)N[C@@H](Cc1ccccc1)C(=O)N[C@@H](C)C(=O)N[C@@H](CC(N)=O)C(N)=O [GIGGALLSAGKAALKGLAKGLAEHFAN]

MIC [1]: 2.03 µM (≈ 7.9 µg/mL) | MIC [2]: 4.06 µM (≈ 15.8 µg/mL) | MIC [3]: 4.06 µM (≈ 15.8 µg/mL) | MIC [4]: 4.06 µM (≈ 15.8 µg/mL)
SMILES: CC[C@H](C)[C@H](NC(=O)[C@H](CC(C)C)NC(=O)[C@H](CCC(N)=O)NC(=O)[C@@H](NC(=O)[C@H](C)NC(=O)CNC(=O)[C@H](CCCCN)NC(=O)[C@@H](NC(=O)[C@H](CC(C)C)NC(=O)[C@@H](NC(=O)[C@H](Cc1ccccc1)NC(=O)[C@@H](NC(=O)CN)C(C)C)[C@@H](C)O)[C@@H](C)CC)[C@@H](C)O)C(=O)NCC(=O)N[C@@H](CCCCN)C(=O)N[C@H](C(=O)N[C@@H](CC(C)C)C(=O)NCC(=O)N[C@@H](CCCCN)C(=O)N[C@@H](CCC(=O)O)C(=O)N[C@@H](CC(C)C)C(=O)NCC(=O)N[C@@H](CCCCN)C(=O)N[C@H](C(=O)NCC(=O)N[C@@H](CC(C)C)C(=O)N[C@@H](CCC(=O)O)C(=O)N[C@H](C(=O)N[C@@H](CCSC)C(=O)N[C@@H](C)C(=O)N[C@H]1CSSC[C@@H](C(=O)O)NC(=O)[C@H](CCC(N)=O)NC(=O)[C@H](CCCCN)NC(=O)[C@H]([C@@H](C)O)NC(=O)[C@H]([C@@H](C)CC)NC(=O)[C@H](CCCCN)NC1=O)[C@@H](C)CC)[C@@H](C)O)[C@@H](C)O [GVFTLIKGATQLIGKTLGKELGKTGLEIMACKITKQC]

MIC [8]: ≥ 2500 µM | MIC [9]: ≥ 1250 µM | MIC [10]: ≥ 1250 µM | MIC [11]: ≥ 2500 µM | MIC [12]: ≥ 2500 µM | MIC [13]: ≥ 2500 µM | MIC [14]: ≥ 2500 µM | MIC [15]: ≥ 2500 µM | MIC [16]: ≥ 2500 µM | MIC [17]: ≥ 2500 µM | MIC [18]: ≥ 2500 µM | MIC [19]: ≥ 2500 µM | MIC [20]: ≥ 2500 µM
SMILES: CC[C@H](C)[C@H](N)C(=O)N[C@@H](Cc1cnc[nH]1)C(=O)N[C@@H](Cc1cnc[nH]1)C(=O)N[C@@H](CCC(N)=O)C(=O)NCC(=O)N[C@@H](CC(C)C)C(=O)N1CCC[C@H]1C(=O)N[C@@H](CCC(N)=O)C(=O)N[C@@H](CCC(=O)O)C(=O)O [IHHQGLPQE]

MIC [5]: ≥ 439 µM | MIC [6]: ≥ 439 µM | MIC [7]: ≥ 439 µM
SMILES: CC[C@H](C)[C@H](NC(=O)[C@H](C)NC(=O)[C@@H]1CCCN1C(=O)[C@H](CCCN=C(N)N)NC(=O)[C@@H](N)CC(C)C)C(=O)N[C@@H](CC(C)C)C(=O)N[C@H](C(=O)N[C@@H](CCCN=C(N)N)C(=O)N[C@H](C(=O)N[C@@H](CCCCN)C(N)=O)[C@@H](C)O)C(C)C [LRPAILVRTK]

MIC [1]: ≥ 64.3 µM | MIC [2]: > 64.3 µM | MIC [3]: ≥ 64.3 µM | MIC [4]: > 64.3 µM
SMILES: CC[C@H](C)[C@H](NC(=O)[C@H](C)NC(=O)[C@@H](N)C(C)C)C(=O)N[C@@H](Cc1ccc(O)cc1)C(=O)NCC(=O)N[C@@H](CCCN=C(N)N)C(=O)N[C@@H](CC(=O)O)C(=O)N[C@@H](CC(=O)O)C(=O)N[C@@H](CCCN=C(N)N)C(=O)N[C@@H](CO)C(=O)N[C@@H](CC(=O)O)C(=O)N[C@H](C(=O)N[C@H]1CSSC[C@@H](C(=O)N[C@@H](CC(=O)O)C(=O)N[C@H](C(=O)N[C@@H](Cc2ccc(O)cc2)C(=O)O)[C@@H](C)O)NC(=O)[C@H](C(C)C)NC(=O)[C@H](CC(C)C)NC(=O)[C@H](Cc2c[nH]c3ccccc23)NC(=O)[C@H](CC(N)=O)NC(=O)[C@H](Cc2cnc[nH]2)NC(=O)[C@H](CCC(N)=O)NC(=O)[C@H](C(C)C)NC(=O)[C@H](CCC(N)=O)NC(=O)[C@H](CCCN=C(N)N)NC1=O)C(C)C [VAIYGRDDRSDVCRQVQHNWLVCDTY]

MIC (Bacillus subtilis): ≥ 200 µM | MIC [21]: ≥ 50 µM | MIC [22]: > 200 µM | MIC [4]: 200 µM (≈ 326 µg/mL)
SMILES: CC[C@H](C)[C@H](NC(=O)[C@H](Cc1ccccc1)NC(=O)[C@@H](NC(=O)[C@H](Cc1ccccc1)NC(=O)[C@H](CCCN=C(N)N)NC(=O)[C@H](CCCCN)NC(=O)[C@H](CCCN=C(N)N)NC(=O)[C@H](CCCCN)NC(=O)[C@H](Cc1ccccc1)NC(=O)[C@H](CC(C)C)NC(=O)[C@@H](NC(=O)[C@@H](N)Cc1ccc(O)cc1)C(C)C)[C@@H](C)CC)C(=O)O [YVLFKRKRFIFI]
